Data published in patent publication US20230255906A1, “Targeting Serpin B9 in Cancer” (The Brigham and Women`s Hospital, Inc., priority 2020, published 2023).

Tested on: B16 melanoma cells
Assay: Caspase-3 activity assay (EnzChek Caspase-3 Assay Kit), caspase-3 induction in tumor cells; also: test concentration or dose not given here
Format: cell-based, mouse
Details: not given
Text: The EnzChek® Caspase-3 Assay Kit was used to detect apoptosis by assaying for increases in caspase-3 activities. The basis for the assay was rhodamine 110 bis-(N-CBZ-L-aspartyl-L-glutamyl-L-valyl-L-aspartic acid amide) (Z-DEVD-R110). This substrate is a bisamide derivative of rhodamine 110 (R110) containing DEVD peptides covalently linked to each of R110's amino groups, thereby suppressing the dye's visible absorption and its fluorescence. Upon enzymatic cleavage, the nonfluorescent bisamide substrate is converted in a two-step process first to a fluorescent monoamide and then to an even more fluorescent R110.
At least 1×10^6 cells of the lysate were used for each reaction. B16 cells were treated with compounds to induce apoptosis. A negative control was prepared by incubating cells in the absence of compounds. The cells were incubated with compounds for 24 hrs and washed in PBS. Each cell sample or control was resuspended in 50 μL of the 1×cell lysis buffer. Cells were lysed by incubating on ice for 30 minutes, and the lysed cells were centrifuged to pellet the cellular debris. 50 μL of the supernatant was transferred from each sample to individual microplate wells. 50 μL of the 1× cell lysis buffer was used as a no-enzyme control to determine the background fluorescence of the substrate. 50 μL of the 2×substrate working solution was added to each sample and control. The microplate was covered, and the samples were incubated at room temperature for approximately 30 minutes. The fluorescence was measured by a fluorescence microplate reader (excitation/emission ˜496/520 nm) using excitation and emission filters.
The ability of this small molecule inhibitor to inhibit intracellular Sb9 was then evaluated. As a marker for cell penetration, the induction of caspase-3 activity in B16 melanoma cells as a surrogate marker for increased GrB activity was measured.
The induction of caspase-3 activity in B16 melanoma cells as a surrogate marker for increased GrB activity was also measured for other small molecules (compounds of Formulas (V) and (VI) as described herein).

Structure (SMILES) | Ratio of caspase-3 activity to Formula (III)
O=C(c1ccc2nc(-c3ccccc3)oc2c1)N1C[C@@H](F)C[C@H]1CO [[(2S,4S)-4-fluoro-1-(2-phenyl-1,3-benzoxazole-6-carbonyl)pyrrolidin-2-yl]methanol] | 0.09723
CCOC(=O)CC1CCCCN1C(=O)c1ccc2nc(-c3cccc(OC)c3)oc2c1 (stereo not drawn) [ethyl (1-{[2-(3-methoxyphenyl)-1,3-benzoxazol-6-yl]carbonyl}-2-piperidinyl)acetate] | 0.1479
CCCOC1CCCN(C(=O)c2ccc3nc(-c4cccc(OC)c4)oc3c2)C1 (stereo not drawn) [2-(3-methoxyphenyl)-6-[(3-propoxy-1-piperidinyl)carbonyl]-1,3-benzoxazole] | 0.1495
CCc1ccc(CN(C)C(=O)c2ccc3oc(-c4cccc(F)c4)nc3c2)nc1 [N-[(5-ethyl-2-pyridinyl)methyl]-2-(3-fluorophenyl)-N-methyl-1,3-benzoxazole-5-carboxamide] | 0.1324
CCN(CCn1cccn1)C(=O)c1ccc2nc(-c3cccc(OC)c3)oc2c1 [N-ethyl-2-(3-methoxyphenyl)-N-[2-(1H-pyrazol-1-yl)ethyl]-1,3-benzoxazole-6-carboxamide] | 0.1363
CCN1CCN(C(=O)c2ccc3oc(-c4cccc(F)c4)nc3c2)CC1 [5-[(4-ethyl-1-piperazinyl)carbonyl]-2-(3-fluorophenyl)-1,3-benzoxazole] | 0.6541
Cc1cc(CNC(=O)c2ccc3oc(-c4cccc(F)c4)nc3c2)nn1C [N-[(1,5-dimethyl-1H-pyrazol-3-yl)methyl]-2-(3-fluorophenyl)-1,3-benzoxazole-5-carboxamide] | 0.123
Cc1c[nH]c(CN(C)C(=O)c2ccc3oc(-c4ccc(C(F)(F)F)cc4)nc3c2)n1 [N-methyl-N-[(4-methyl-1H-imidazol-2-yl)methyl]-2-[4-(trifluoromethyl)phenyl]-1,3-benzoxazole-5-carboxamide] | 0.1327
COc1cccc(-c2nc3ccc(C(=O)N4CCN(CCC(N)=O)CC4)cc3o2)c1 [3-(4-{[2-(3-methoxyphenyl)-1,3-benzoxazol-6-yl]carbonyl}-1-piperazinyl)propanamide] | 1.077
Cn1cnnc1CCNC(=O)c1ccc2oc(-c3cccc(F)c3)nc2c1 [2-(3-fluorophenyl)-N-[2-(4-methyl-4H-1,2,4-triazol-3-yl)ethyl]-1,3-benzoxazole-5-carboxamide] | 0.7133
CN(CCN1CCCCC1)C(=O)c1ccc2oc(-c3cccc(F)c3)nc2c1 [2-(3-fluorophenyl)-N-methyl-N-[2-(1-piperidinyl)ethyl]-1,3-benzoxazole-5-carboxamide] | 0.1405
CN(Cc1cccnc1)C(=O)c1ccc2oc(-c3ccc(C(F)(F)F)cc3)nc2c1 [N-methyl-N-(3-pyridinylmethyl)-2-[4-(trifluoromethyl)phenyl]-1,3-benzoxazole-5-carboxamide] | 0.1669
COc1cccc(-c2nc3ccc(C(=O)N4CCN(C5CCCC5)CC4)cc3o2)c1 [6-[(4-cyclopentyl-1-piperazinyl)carbonyl]-2-(3-methoxyphenyl)-1,3-benzoxazole] | 0.1582
CC(C)NC(=O)CCNC(=O)c1ccc2nc(-c3ccccc3)oc2c1 [3-[(2-phenyl-1,3-benzoxazol-6-yl)formamido]-N-(propan-2-yl)propanamide] | 1.371
CC1(C)CC(NC(=O)c2ccc3nc(-c4ccccc4)oc3c2)CO1 (stereo not drawn) [N-(5,5-dimethyloxolan-3-yl)-2-phenyl-1,3-benzoxazole-6-carboxamide] | 0.09307
O=C(c1ccc2nc(-c3ccccc3)oc2c1)N1CCC12CCOC2 (stereo not drawn) [6-{6-oxa-1-azaspiro[3.4]octane-1-carbonyl}-2-phenyl-1,3-benzoxazole] | 1.434
O=C(NCc1cccnc1)c1ccc2oc(-c3cccc(F)c3)nc2c1 [2-(3-fluorophenyl)-N-(3-pyridinylmethyl)-1,3-benzoxazole-5-carboxamide] | 0.1077
O=C(NCCO)c1ccc2oc(-c3ccc(C(F)(F)F)cc3)nc2c1 [N-(2-hydroxyethyl)-2-[4-(trifluoromethyl)phenyl]-1,3-benzoxazole-5-carboxamide] | 0.3843
COc1cccc(-c2nc3ccc(C(=O)N(C)CC(O)c4ccccc4)cc3o2)c1 (stereo not drawn) [N-(2-hydroxy-2-phenylethyl)-2-(3-methoxyphenyl)-N-methyl-1,3-benzoxazole-6-carboxamide] | 0.1589

Same assay, conditions: relative to compound of Formula (III)

Structure (SMILES) | Caspase-3 induction, Normalized to Formula (III) (%)
COc1cc(C(=O)NCCN(C)C)ccc1OCCC(C)C [N-[2-(dimethylamino)ethyl]-3-methoxy-4-(3-methylbutoxy)benzamide] | 6.8323
COc1cc(Br)c(C(=O)NCC2CCOC2)cc1OC (stereo not drawn) [2-bromo-4,5-dimethoxy-N-[(oxolan-3-yl)methyl]benzamide] | −2.142
O=C(NCc1ccccc1)c1ccc2nc(C3CCCO3)oc2c1 (stereo not drawn) [N-benzyl-2-(oxolan-2-yl)-1,3-benzoxazole-6-carboxamide] | −34.6335
O=C(NCc1ccccc1)c1cc2c(cc1O)OCO2 [N-benzyl-6-hydroxy-2H-1,3-benzodioxole-5-carboxamide] | −9.366
CN(C)c1nc2c(C(=O)N3CCCC3)cccc2o1 [N,N-dimethyl-4-(pyrrolidine-1-carbonyl)-1,3-benzoxazol-2-amine] | −22.9856
Cc1nc2c(C(=O)NC3CCCC3)cccc2o1 [N-cyclopentyl-2-methyl-1,3-benzoxazole-4-carboxamide] | −30.2879
O=C(NC1CCCC1)c1ccc2nc(C3CCCCC3)oc2c1 [2-cyclohexyl-N-cyclopentyl-1,3-benzoxazole-6-carboxamide] | 26.2507
CCN(C)C(=O)c1ccc2nc(C3CCCCC3)oc2c1 [2-cyclohexyl-N-ethyl-N-methyl-1,3-benzoxazole-6-carboxamide] | 1.1915
COCCCNC(=O)c1ccc2nc(C(F)(F)C(F)(F)F)oc2c1 [N-(3-methoxypropyl)-2-(1,1,2,2,2-pentafluoroethyl)-1,3-benzoxazole-6-carboxamide] | −23.2124
Cc1cc(O)c(O)cc1C(=O)NCc1ccccc1 [N-benzyl-4,5-dihydroxy-2-methylbenzamide] | −43.6184
CCN(C)C(=O)c1ccc2nc(C3CCCO3)oc2c1 (stereo not drawn) [N-ethyl-N-methyl-2-(oxolan-2-yl)-1,3-benzoxazole-6-carboxamide] | 8.3538
CCN(C)C(=O)c1ccc2nc(S)oc2c1 [N-ethyl-N-methyl-2-sulfanyl-1,3-benzoxazole-6-carboxamide] | −6.201
CCN(C)C(=O)c1ccc2nc(C(F)(F)C(F)(F)F)oc2c1 [N-ethyl-N-methyl-2-(1,1,2,2,2-pentafluoroethyl)-1,3-benzoxazole-6-carboxamide] | −28.449
Cc1cc(O)c(O)cc1C(=O)NC1CCCC1 [N-cyclopentyl-4,5-dihydroxy-2-methylbenzamide] | −66.5183
COCCCNC(=O)c1cccc2oc(N(C)C)nc12 [2-(dimethylamino)-N-(3-methoxypropyl)-1,3-benzoxazole-4-carboxamide] | −31.049
O=C(NCc1ccccc1)c1ccc2nc(C3CCCCC3)oc2c1 [N-benzyl-2-cyclohexyl-1,3-benzoxazole-6-carboxamide] | −61.2418
CN(C)c1nc2cccc(C(=O)NCc3ccccc3)c2o1 [N-benzyl-2-(dimethylamino)-1,3-benzoxazole-7-carboxamide] | −26.8974
O=C(NCc1ccccc1)c1ccc2nc(S)oc2c1 [N-benzyl-2-sulfanyl-1,3-benzoxazole-6-carboxamide] | −17.7286
CCOc1ccc(C(=O)NCCCOC)cc1O [4-ethoxy-3-hydroxy-N-(3-methoxypropyl)benzamide] | −35.6816
COc1cc(C(=O)NCC2CCCC2)ccc1OCCC(C)C [N-(cyclopentylmethyl)-3-methoxy-4-(3-methylbutoxy)benzamide] | −50.1028
